Results reported in PMC4844702, “Selective inhibition of the kinase DYRK1A by targeting its folding process” (Nature Communications, 2016).

Assays:
Experiment in all cases: Kinase panel (Carna)
Assay type in all cases: biochemical
ARG = target: T1, ARG (Homo sapiens, UniProt P42684)
T1 construct: purchased Carna Biosciences
Description: (§1) Detailed information on the assay conditions is available on the website of Carna Biosciences (http://www.carnabio.com).

CSK = target: T2, CSK (Homo sapiens, UniProt P41240)
T2 construct: purchased Carna Biosciences
Description: as §1

EGFR = target: T3, EGFR (Homo sapiens, UniProt P00533)
T3 construct: purchased Carna Biosciences

EPHA1 = target: T4, EPHA1 (Homo sapiens, UniProt P21709)
T4 construct: purchased Carna Biosciences

EPHA4 = target: T5, EPHA4 (Homo sapiens, UniProt P54764)
T5 construct: purchased Carna Biosciences

EPHB1 = target: T6, EPHB1 (Homo sapiens, UniProt P54762)
T6 construct: purchased Carna Biosciences
Description: as §1

FGFR1 = target: T7, FGFR1 (Homo sapiens, UniProt P11362)
T7 construct: purchased Carna Biosciences

FGFR3 = target: T8, FGFR3 (Homo sapiens, UniProt P22607)
T8 construct: purchased Carna Biosciences

FLT3 = target: T9, FLT3 (Homo sapiens, UniProt P36888)
T9 construct: purchased Carna Biosciences
Description: as §1

HER2 = target: T10, HER2 (Homo sapiens, UniProt P04626)
T10 construct: purchased Carna Biosciences
Description: as §1

HER4 = target: T11, HER4 (Homo sapiens, UniProt Q15303)
T11 construct: purchased Carna Biosciences
Description: as §1

JAK3 = target: T12, JAK3 (Homo sapiens, UniProt P52333)
T12 construct: purchased Carna Biosciences
Description: as §1

LCK = target: T13, LCK (Homo sapiens, UniProt P06239)
T13 construct: purchased Carna Biosciences
Description: as §1

RET = target: T14, RET (Homo sapiens, UniProt P07949)
T14 construct: purchased Carna Biosciences
Description: as §1

SRC = target: T15, SRC (Homo sapiens, UniProt P12931)
T15 construct: purchased Carna Biosciences
Description: as §1

TNK1 = target: T16, TNK1 (Homo sapiens, UniProt Q13470)
T16 construct: purchased Carna Biosciences
Description: as §1

AKT3 = target: T17, AKT3 (Homo sapiens, UniProt Q9Y243)
T17 construct: purchased Carna Biosciences
Description: as §1

AurA/TPX2 = target: T18, AurA/TPX2 (Homo sapiens, UniProt O14965)
T18 construct: purchased Carna Biosciences
Description: as §1

AurC = target: T19, AurC (Homo sapiens, UniProt Q9UQB9)
T19 construct: purchased Carna Biosciences
Description: as §1

CK1γ2 = target: T20, CK1γ2 (Homo sapiens, UniProt P78368)
T20 construct: purchased Carna Biosciences

CK1γ3 = target: T21, CK1γ3 (Homo sapiens, UniProt Q9Y6M4)
T21 construct: purchased Carna Biosciences

MAP3K5_Cascade = target: T22, MAP3K5_Cascade (Homo sapiens, UniProt Q99683)
T22 construct: purchased Carna Biosciences
Description: as §1

Haspin = target: T23, Haspin (Homo sapiens, UniProt Q8TF76)
T23 construct: purchased Carna Biosciences

MAP2K2_Cascade = target: T24, MAP2K2_Cascade (Homo sapiens, UniProt P36507)
T24 construct: purchased Carna Biosciences

MAP2K6_Cascade = target: T25, MAP2K6_Cascade (Homo sapiens, UniProt P52564)
T25 construct: purchased Carna Biosciences

MAP2K7_Cascade = target: T26, MAP2K7_Cascade (Homo sapiens, UniProt O14733)
T26 construct: purchased Carna Biosciences
Description: as §1

NuaK1 = target: T27, NuaK1 (Homo sapiens, UniProt O60285)
T27 construct: purchased Carna Biosciences

MARK1 = target: T28, MARK1 (Homo sapiens, UniProt Q9P0L2)
T28 construct: purchased Carna Biosciences
Description: as §1

MLK2_Cascade = target: T29, MLK2_Cascade (Homo sapiens, UniProt Q02779)
T29 construct: purchased Carna Biosciences
Description: as §1

NDR1 = target: T30, NDR1 (Homo sapiens, UniProt Q15208)
T30 construct: purchased Carna Biosciences
Description: as §1

p38δ = target: T31, p38δ (Homo sapiens, UniProt O15264)
T31 construct: purchased Carna Biosciences
Description: as §1

PAK2 = target: T32, PAK2 (Homo sapiens, UniProt Q13177)
T32 construct: purchased Carna Biosciences
Description: as §1

PASK = target: T33, PASK (Homo sapiens, UniProt Q96RG2)
T33 construct: purchased Carna Biosciences
Description: as §1

PBK = target: T34, PBK (Homo sapiens, UniProt Q96KB5)
T34 construct: purchased Carna Biosciences
Description: as §1

PDK1 = target: T35, PDK1 (Homo sapiens, UniProt O15530)
T35 construct: purchased Carna Biosciences
Description: as §1

PGK = target: T36, PGK (Homo sapiens, UniProt Q13976)
T36 construct: purchased Carna Biosciences
Description: as §1

PIM2 = target: T37, PIM2 (Homo sapiens, UniProt Q9P1W9)
T37 construct: purchased Carna Biosciences
Description: as §1

PKCε = target: T38, PKCε (Homo sapiens, UniProt Q02156)
T38 construct: purchased Carna Biosciences
Description: as §1

PKCθ = target: T39, PKCθ (Homo sapiens, UniProt Q04759)
T39 construct: purchased Carna Biosciences
Description: as §1

PKD3 = target: T40, PKD3 (Homo sapiens, UniProt O94806)
T40 construct: purchased Carna Biosciences

PRKX = target: T41, PRKX (Homo sapiens, UniProt P51817)
T41 construct: purchased Carna Biosciences

ROCK2 = target: T42, ROCK2 (Homo sapiens, UniProt O75116)
T42 construct: purchased Carna Biosciences

RSK1 = target: T43, RSK1 (Homo sapiens, UniProt Q15418)
T43 construct: purchased Carna Biosciences

skMLCK = target: T44, skMLCK (Homo sapiens, UniProt Q9H1R3)
T44 construct: purchased Carna Biosciences

SRPK1 = target: T45, SRPK1 (Homo sapiens, UniProt Q96SB4)
T45 construct: purchased Carna Biosciences
Description: as §1

T30 sequence (Q15208 whole entry): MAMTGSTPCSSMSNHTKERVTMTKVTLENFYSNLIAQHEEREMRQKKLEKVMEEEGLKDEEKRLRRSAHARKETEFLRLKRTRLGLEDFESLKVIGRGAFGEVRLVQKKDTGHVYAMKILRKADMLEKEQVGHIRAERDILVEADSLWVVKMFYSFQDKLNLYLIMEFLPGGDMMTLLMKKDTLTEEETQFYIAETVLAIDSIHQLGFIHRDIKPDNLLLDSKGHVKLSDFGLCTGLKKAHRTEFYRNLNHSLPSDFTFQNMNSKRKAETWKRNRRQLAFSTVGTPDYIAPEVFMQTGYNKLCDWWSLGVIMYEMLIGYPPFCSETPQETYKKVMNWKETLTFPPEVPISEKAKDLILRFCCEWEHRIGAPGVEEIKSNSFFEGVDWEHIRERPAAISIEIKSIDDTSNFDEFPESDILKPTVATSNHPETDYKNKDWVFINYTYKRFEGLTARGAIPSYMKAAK
T31 sequence (O15264 whole entry): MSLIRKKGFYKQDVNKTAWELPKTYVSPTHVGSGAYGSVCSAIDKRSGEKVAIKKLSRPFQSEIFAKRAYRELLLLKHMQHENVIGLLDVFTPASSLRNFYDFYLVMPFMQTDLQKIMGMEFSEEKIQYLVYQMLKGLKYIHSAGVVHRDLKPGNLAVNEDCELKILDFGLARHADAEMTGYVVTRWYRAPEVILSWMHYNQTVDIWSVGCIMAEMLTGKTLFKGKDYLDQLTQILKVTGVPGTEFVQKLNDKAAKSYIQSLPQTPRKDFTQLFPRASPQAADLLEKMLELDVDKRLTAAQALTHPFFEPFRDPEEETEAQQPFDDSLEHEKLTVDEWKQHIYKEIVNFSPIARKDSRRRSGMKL
T22 sequence (Q99683 whole entry): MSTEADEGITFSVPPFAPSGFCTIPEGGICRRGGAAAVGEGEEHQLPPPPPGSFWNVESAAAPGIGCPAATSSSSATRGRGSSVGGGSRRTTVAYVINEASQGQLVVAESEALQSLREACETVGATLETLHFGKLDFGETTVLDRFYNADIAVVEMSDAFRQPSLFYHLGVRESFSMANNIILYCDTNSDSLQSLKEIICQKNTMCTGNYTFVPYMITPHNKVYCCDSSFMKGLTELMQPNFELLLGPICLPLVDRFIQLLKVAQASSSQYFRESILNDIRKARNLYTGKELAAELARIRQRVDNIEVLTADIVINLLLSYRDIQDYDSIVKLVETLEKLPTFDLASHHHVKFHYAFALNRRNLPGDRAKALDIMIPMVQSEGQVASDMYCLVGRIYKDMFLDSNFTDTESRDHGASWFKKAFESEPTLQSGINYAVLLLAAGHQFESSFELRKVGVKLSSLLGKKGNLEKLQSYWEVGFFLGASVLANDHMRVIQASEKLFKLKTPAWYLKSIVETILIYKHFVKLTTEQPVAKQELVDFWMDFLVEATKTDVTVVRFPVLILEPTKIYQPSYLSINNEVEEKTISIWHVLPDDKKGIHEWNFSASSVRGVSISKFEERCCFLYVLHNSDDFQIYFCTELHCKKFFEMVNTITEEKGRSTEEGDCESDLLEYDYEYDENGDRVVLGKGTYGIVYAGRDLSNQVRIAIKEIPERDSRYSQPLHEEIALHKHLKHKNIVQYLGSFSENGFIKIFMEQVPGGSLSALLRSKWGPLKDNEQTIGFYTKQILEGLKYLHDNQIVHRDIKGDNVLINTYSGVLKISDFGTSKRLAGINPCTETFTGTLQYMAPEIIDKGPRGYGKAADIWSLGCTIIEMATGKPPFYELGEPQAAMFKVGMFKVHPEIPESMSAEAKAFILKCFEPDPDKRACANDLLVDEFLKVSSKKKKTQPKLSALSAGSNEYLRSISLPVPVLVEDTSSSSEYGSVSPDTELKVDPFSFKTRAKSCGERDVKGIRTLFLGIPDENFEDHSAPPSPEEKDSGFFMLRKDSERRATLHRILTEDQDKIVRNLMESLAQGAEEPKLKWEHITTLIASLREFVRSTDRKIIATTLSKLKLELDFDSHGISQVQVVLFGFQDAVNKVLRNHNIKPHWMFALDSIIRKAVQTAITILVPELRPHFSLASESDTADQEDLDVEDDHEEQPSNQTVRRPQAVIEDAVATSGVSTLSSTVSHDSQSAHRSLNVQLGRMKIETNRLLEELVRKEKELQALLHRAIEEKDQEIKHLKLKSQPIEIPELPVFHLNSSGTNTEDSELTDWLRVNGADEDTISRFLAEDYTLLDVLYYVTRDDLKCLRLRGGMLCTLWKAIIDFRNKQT
T6 sequence (P54762 18-984): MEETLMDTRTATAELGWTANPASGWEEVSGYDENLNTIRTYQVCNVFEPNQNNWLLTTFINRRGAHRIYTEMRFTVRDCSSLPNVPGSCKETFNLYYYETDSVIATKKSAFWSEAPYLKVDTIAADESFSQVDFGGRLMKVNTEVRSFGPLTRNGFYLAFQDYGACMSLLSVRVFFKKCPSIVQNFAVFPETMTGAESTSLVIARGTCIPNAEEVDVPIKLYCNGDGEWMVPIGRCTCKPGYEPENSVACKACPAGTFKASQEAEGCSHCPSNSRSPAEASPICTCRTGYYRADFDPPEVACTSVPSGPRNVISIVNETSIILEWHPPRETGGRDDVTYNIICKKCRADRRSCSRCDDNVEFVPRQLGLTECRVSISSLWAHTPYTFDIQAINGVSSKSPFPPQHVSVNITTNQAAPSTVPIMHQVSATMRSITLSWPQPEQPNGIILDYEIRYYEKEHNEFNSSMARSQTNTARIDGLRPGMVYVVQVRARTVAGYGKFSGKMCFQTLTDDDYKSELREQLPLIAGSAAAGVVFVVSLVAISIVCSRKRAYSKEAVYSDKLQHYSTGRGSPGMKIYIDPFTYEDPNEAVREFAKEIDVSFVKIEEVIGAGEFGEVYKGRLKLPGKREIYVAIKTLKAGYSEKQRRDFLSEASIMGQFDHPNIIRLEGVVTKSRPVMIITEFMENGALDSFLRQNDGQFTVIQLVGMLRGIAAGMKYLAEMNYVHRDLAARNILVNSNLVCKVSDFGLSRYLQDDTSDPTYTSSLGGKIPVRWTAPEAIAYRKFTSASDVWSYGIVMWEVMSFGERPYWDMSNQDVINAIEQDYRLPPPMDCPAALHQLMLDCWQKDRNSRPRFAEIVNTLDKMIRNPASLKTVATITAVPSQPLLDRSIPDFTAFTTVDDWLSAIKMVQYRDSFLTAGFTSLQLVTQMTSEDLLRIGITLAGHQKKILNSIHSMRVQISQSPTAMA
T17 sequence (Q9Y243 whole entry): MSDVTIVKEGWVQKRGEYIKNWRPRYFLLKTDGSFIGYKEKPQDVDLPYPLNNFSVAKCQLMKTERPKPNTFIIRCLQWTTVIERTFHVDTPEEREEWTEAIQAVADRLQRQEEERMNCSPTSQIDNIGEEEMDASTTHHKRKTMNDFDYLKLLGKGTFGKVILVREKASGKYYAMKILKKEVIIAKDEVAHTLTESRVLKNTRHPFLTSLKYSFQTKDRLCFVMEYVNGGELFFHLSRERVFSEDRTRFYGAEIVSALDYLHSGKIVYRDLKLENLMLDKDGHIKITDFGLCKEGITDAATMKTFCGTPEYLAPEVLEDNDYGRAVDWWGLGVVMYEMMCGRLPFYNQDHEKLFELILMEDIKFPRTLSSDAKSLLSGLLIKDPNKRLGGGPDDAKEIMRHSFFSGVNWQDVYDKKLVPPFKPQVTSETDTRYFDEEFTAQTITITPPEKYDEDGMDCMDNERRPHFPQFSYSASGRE
T4 sequence (P21709 26-976): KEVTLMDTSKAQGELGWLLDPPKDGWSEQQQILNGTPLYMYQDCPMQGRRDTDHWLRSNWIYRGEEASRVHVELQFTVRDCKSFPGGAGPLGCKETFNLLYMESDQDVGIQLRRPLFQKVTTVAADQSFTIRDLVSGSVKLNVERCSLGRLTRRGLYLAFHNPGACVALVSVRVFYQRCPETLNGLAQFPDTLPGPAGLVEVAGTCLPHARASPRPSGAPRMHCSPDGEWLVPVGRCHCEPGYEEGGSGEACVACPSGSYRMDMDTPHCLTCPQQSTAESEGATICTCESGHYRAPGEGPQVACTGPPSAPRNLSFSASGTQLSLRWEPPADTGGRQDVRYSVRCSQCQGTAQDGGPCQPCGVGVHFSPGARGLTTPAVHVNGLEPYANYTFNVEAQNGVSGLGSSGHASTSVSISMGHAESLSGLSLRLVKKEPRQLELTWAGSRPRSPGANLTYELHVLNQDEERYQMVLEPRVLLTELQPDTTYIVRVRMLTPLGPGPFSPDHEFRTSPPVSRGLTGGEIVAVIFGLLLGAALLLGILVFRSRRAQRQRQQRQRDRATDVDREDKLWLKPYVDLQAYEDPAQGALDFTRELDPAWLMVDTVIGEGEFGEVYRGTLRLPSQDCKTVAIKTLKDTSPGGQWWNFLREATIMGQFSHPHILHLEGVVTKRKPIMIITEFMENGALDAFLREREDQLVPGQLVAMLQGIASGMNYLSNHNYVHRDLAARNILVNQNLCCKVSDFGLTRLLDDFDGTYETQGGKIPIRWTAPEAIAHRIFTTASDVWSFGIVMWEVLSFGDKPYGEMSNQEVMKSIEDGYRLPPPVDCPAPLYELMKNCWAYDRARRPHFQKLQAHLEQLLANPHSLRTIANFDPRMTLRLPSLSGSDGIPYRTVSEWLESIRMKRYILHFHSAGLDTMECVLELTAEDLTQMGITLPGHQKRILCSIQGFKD
T20 sequence (P78368 whole entry): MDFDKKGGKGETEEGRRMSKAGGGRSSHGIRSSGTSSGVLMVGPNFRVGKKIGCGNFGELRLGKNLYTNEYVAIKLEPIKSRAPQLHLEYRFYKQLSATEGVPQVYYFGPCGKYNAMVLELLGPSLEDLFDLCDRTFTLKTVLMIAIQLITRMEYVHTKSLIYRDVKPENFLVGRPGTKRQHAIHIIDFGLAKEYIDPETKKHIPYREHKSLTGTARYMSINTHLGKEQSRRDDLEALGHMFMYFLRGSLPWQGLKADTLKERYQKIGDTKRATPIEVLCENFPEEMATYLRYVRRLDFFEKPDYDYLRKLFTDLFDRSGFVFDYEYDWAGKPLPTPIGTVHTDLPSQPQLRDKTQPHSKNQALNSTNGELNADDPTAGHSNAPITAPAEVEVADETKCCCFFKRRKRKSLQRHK

COc1ccc(/C=C2\SC(=S)NC2=O)cc1C#C[Si](C)(C)C [FINDY]
inhibition at 10 µM (ARG): 15.2%
inhibition at 10 µM (CSK): 6.7%
inhibition at 10 µM (EGFR): -5.1%
inhibition at 10 µM (EPHA1): 40.5%
inhibition at 10 µM (EPHA4): 16.3%
inhibition at 10 µM (EPHB1): 13.9%
inhibition at 10 µM (FGFR1): 37%
inhibition at 10 µM (FGFR3): -0.5%
inhibition at 10 µM (FLT3): 16%
inhibition at 10 µM (HER2): -0.1%
inhibition at 10 µM (HER4): -13.4%
inhibition at 10 µM (JAK3): 8.2%
inhibition at 10 µM (LCK): 7.2%
inhibition at 10 µM (RET): 12.6%
inhibition at 10 µM (SRC): 5.6%
inhibition at 10 µM (TNK1): 7.3%
inhibition at 10 µM (AKT3): 18.9%
inhibition at 10 µM (AurA/TPX2): 25.1%
inhibition at 10 µM (AurC): 40.1%
inhibition at 10 µM (CK1γ2): 27.7%
inhibition at 10 µM (CK1γ3): 15.9%
inhibition at 10 µM (MAP3K5_Cascade): 32.1%
inhibition at 10 µM (Haspin): 30.3%
inhibition at 10 µM (MAP2K2_Cascade): 38.8%
inhibition at 10 µM (MAP2K6_Cascade): 23.5%
inhibition at 10 µM (MAP2K7_Cascade): 14.4%
inhibition at 10 µM (NuaK1): -26.4%
inhibition at 10 µM (MARK1): 46.7%
inhibition at 10 µM (MLK2_Cascade): 41%
inhibition at 10 µM (NDR1): 3.8%
inhibition at 10 µM (p38δ): 11.9%
inhibition at 10 µM (PAK2): -2.5%
inhibition at 10 µM (PASK): 11.9%
inhibition at 10 µM (PBK): 14.6%
inhibition at 10 µM (PDK1): -2.6%
inhibition at 10 µM (PGK): 2.6%
inhibition at 10 µM (PIM2): 67.4%
inhibition at 10 µM (PKCε): -6.6%
inhibition at 10 µM (PKCθ): 6.5%
inhibition at 10 µM (PKD3): -13.4%
inhibition at 10 µM (PRKX): 3%
inhibition at 10 µM (ROCK2): -2%
inhibition at 10 µM (RSK1): 39.8%
inhibition at 10 µM (skMLCK): 2%
inhibition at 10 µM (SRPK1): 7.5%
